Reference: patent EP4471048A1, “PEPTIDE INHIBITORS OF INTERLEUKIN-23 RECEPTOR” (Zealand Pharma A/S, priority 2023, dated 2024)
Where a SMILES comes first, the peptide text is derived from it. Bridges are numbered along the chain shown (N, C = ends). [ ]: non-standard residue; d: D form. 2Nal = N[C@@H](Cc1ccc2ccccc2c1)C(=O)O; AEF = NCCOc1ccc(C[C@H](N)C(=O)O)cc1; 3Pal = N[C@@H](Cc1cccnc1)C(=O)O; Lys(Me) = CNCCCC[C@H](N)C(=O)O; αMeL = CC(C)C[C@](C)(N)C(=O)O; NMeK = CN[C@@H](CCCCN)C(=O)O; Dab = NCC[C@H](N)C(=O)O; βAla = NCCC(=O)O

Experiments:
[1] = target: T1, human IL-23R (Homo sapiens, UniProt Q5VWK5); test: biochemical; conditions: for Emax: read-out: % displacement (hIL-23R NIuc)
T1 sequence (Q5VWK5 22-629): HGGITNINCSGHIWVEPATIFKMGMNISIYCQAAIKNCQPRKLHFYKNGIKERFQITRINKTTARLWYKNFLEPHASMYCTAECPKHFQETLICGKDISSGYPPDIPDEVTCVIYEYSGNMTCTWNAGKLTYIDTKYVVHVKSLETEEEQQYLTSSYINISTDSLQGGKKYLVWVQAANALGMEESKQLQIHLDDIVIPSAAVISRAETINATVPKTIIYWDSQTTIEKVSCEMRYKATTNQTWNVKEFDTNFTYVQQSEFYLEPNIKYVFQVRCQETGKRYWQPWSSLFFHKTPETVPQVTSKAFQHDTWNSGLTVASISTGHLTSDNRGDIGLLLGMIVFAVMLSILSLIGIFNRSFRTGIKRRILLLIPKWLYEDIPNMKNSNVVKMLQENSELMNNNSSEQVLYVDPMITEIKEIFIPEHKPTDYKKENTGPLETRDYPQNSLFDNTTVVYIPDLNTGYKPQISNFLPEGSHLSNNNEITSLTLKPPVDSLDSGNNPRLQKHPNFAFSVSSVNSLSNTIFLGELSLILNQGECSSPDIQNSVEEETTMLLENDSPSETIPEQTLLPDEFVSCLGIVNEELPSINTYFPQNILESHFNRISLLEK
How it was run: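 BRET displacement of a TAMRA-labelled reference compound from N-terminal Nanoluc-IL-23R fusion protein in membranes from stably transfected HEK293 cells. Incubation 2 h at room temperature, then Nanoluc substrate was added and the TAMRA/Nanoluc ratio read. IC50 and maximal displacement came from 4-parameter logistic fits.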

[2] = Peptide stability in simulated intestinal fluid (SIF); type: in vitro ADME; conditions: 37 °C, porcine pancreatin; for remaining at 1 h, 10 µM / remaining at 4 h, 10 µM: pig; for remaining at 1 h, 10 µM: pH 6.8, 1 h
Protocol: (§1) SGF was prepared by dissolving sodium chloride (0.2 g) in 50 mL of water. A volume of 0.7 mL of 10 M HCl was added to adjust the pH of the solution to 1.2 and the volume made up to 100 mL with water. […] SIF was prepared by dissolving monobasic potassium phosphate (0.68 g) in 50 mL of water and adjusting the pH to 6.8 with 1 M NaOH. The volume was subsequently made up to 100 mL with water. 200 mg porcine pancreatin (P1625, Sigma Aldrich) was gently dissolved into 20 mL preheated (37 °C) solution (10 g/L) immediately prior to the incubation.
(§2) The incubation was performed at 37 °C with gentle shaking. […] After the last timepoint, the sampling plate was mixed for 10 min on a shaking table and centrifuged 10 min at 2200 g. 70 µL resulting supernatant was diluted with 150 µL water, mixed and centrifugated before analysis by liquid chromatography high resolution mass spectrometry. […] Percent remaining at each timepoint was calculated relative to timepoint zero based on absolute peak areas.
Compounds with a SIF stability (after 4 h) above 70% are considered highly SIF stable.

[3] = Peptide stability in simulated gastric fluid (SGF); type: in vitro ADME; conditions: 37 °C, porcine pepsin; for remaining at 1 h, 10 µM / remaining at 4 h, 10 µM: pig, simulated gastric fluid (SGF) with porcine pepsin (3.2 g/L); for remaining at 1 h, 10 µM: pH 1.2, 1 h, read-out: SGF (% remaining 1 h); for remaining at 4 h, 10 µM / SGF (% remaining 4 h): pH 1.2, 4 h
Protocol: as §1, §2
Compounds with a SGF stability (after 4 h) above 70% are considered highly SGF stable. […] Table 3-4: SGF data

[4] = pH 6.8, 4 h, read-out: SIF (% remaining 4 h)
[5] = pH 1.2, 10 µM, read-out: SGF (% remaining 4 h)
[6] = SAR tables, % peptide remaining, pH 6.8, 4 h, read-out: SIF (% after 4 h)

With `CNC(=O)[C@H](Cc1cccnc1)NC(=O)[C@H](CCN)NC(=O)[C@@H]1CCC(=O)NCCCC[C@H]2C(=O)NCCC(=O)N[C@@H](Cc3c[nH]c4ccccc34)C(=O)N[C@@H](CCC(N)=O)C(=O)N[C@@H](CCC(=O)N2C)C(=O)N[C@@H](Cc2ccc(OCCN)cc2)C(=O)N[C@@H](Cc2ccc3ccccc3c2)C(=O)N[C@@](C)(CC(C)C)C(=O)N1` [Compound 80, [N-Me-Lys](1c)(6c)^†[3-Aminopropanoyl]WQE(6c)[Y(2-aminoethoxy)][2-Nal][2-Me-Leu]E(1c)[Dab][3-(3-Pyridyl)-Ala]-[NHMe]] ([NMeK][βAla]WQE[AEF][2Nal][αMeL]E[Dab][3Pal]-NHMe; lactam 1-9, N-5) the IC50 [1] was 0.017 nM, the Emax [1] was 102% and the remaining at 1 h, 10 µM [2] was 116%. For the same compound, the remaining at 4 h, 10 µM [2, 4] was 89%, the remaining at 1 h, 10 µM ([3]; pH 1.2, 10 µM) was 107% and the remaining at 4 h, 10 µM [3, 5] was 104%.
`CNC(=O)[C@H](Cc1cccnc1)NC(=O)[C@H](CCN)NC(=O)[C@@H]1CCC(=O)NCCCC[C@@H]2NC(=O)CC[C@H](NC(=O)[C@H](CCC(N)=O)NC(=O)[C@H](Cc3c[nH]c4ccccc34)NC2=O)C(=O)N[C@@H](Cc2ccc(OCCN)cc2)C(=O)N[C@@H](Cc2ccc3ccccc3c2)C(=O)N[C@@](C)(CC(C)C)C(=O)N1` [Compound 43, K(1c)(6c)^†WQE(6c)[Y(2-aminoethoxy)][2-Nal][2-Me-Leu]E(1c)[Dab][3-(3-Pyridyl)-Ala]-[NHMe]] (KWQE[AEF][2Nal][αMeL]E[Dab][3Pal]-NHMe; lactam 1-8, N-4) showed an IC50 [1] of 80 nM, an Emax [1] of 100% and a remaining at 1 h, 10 µM [2] of 91%. It also gave a remaining at 4 h, 10 µM [2, 6] of 102%, a remaining at 1 h, 10 µM ([3]; pH 1.2, 10 µM) of 110% and a remaining at 4 h, 10 µM [3, 5] of 108%.
For `CC[C@H](C)[C@@H]1NC(=O)[C@@H]2CCCCNC(=O)CC[C@@H](C(=O)N[C@@H](Cc3cnc[nH]3)C(=O)N[C@@H](Cc3cccnc3)C(=O)NC)NC(=O)[C@](C)(CC(C)C)NC(=O)[C@H](Cc3ccc4ccccc4c3)NC(=O)[C@H](Cc3ccc(OCCN)cc3)NC(=O)[C@H](CCC(=O)N2)NC(=O)[C@H](CCC(N)=O)NC(=O)[C@H](Cc2c[nH]c3ccccc23)NC(=O)[C@H](C(C)C)NC1=O` [Compound 69, K(1c)(6c)^†IVWQE(6c)[Y(2-aminoethoxy)][2-Nal][2-Me-Leu]E(1c)H[3-(3-Pyridyl)-Ala]-[NHMe]], the IC50 [1] was 0.12 nM, the Emax [1] was 101% and the remaining at 1 h, 10 µM [2] was 89%. For the same compound, the remaining at 4 h, 10 µM [2, 6] was 33%, the remaining at 1 h, 10 µM ([3]; pH 1.2, 10 µM) was 112% and the remaining at 4 h, 10 µM [3, 5] was 102%.
In the case of `CC[C@H](C)[C@@H]1NC(=O)[C@@H]2CCC(=O)N(C)CCCC[C@@H](C(=O)N[C@@H](CCN)C(=O)N[C@@H](Cc3cccnc3)C(=O)NC)NC(=O)[C@](C)(CC(C)C)NC(=O)[C@H](Cc3ccc4ccccc4c3)NC(=O)[C@H](Cc3ccc(OCCN)cc3)NC(=O)[C@H](CCC(=O)N2)NC(=O)[C@H](CCC(N)=O)NC(=O)[C@H](Cc2c[nH]c3ccccc23)NC(=O)[C@H](C(C)C)NC1=O` [Compound 74, E(1c)(6c)^†IVWQE(6c)[Y(2-aminoethoxy)][2-Nal][2-Me-Leu][K(Me)](1 c)[Dab][3-(3-Pyridyl)-Ala]-[NHMe]] (EIVWQE[AEF][2Nal][αMeL][Lys(Me)][Dab][3Pal]-NHMe; lactam 1-10, N-6), the Emax [1] is reported as 99%, the remaining at 1 h, 10 µM [2] is reported as 91% and the remaining at 4 h, 10 µM [2, 4] is reported as 89%. The remaining at 1 h, 10 µM ([3]; pH 1.2, 10 µM) was 94% and the remaining at 4 h, 10 µM [3, 5] was 92%.
`CNC(=O)[C@H](Cc1cccnc1)NC(=O)[C@H](CCN)NC(=O)[C@@H]1CCC(=O)N[C@H]2CCCCNC(=O)CC[C@H](NC(=O)[C@H](CCC(N)=O)NC(=O)[C@H](Cc3c[nH]c4ccccc34)NC(=O)CNC2=O)C(=O)N[C@@H](Cc2ccc(OCCN)cc2)C(=O)N[C@@H](Cc2ccc3ccccc3c2)C(=O)N[C@@](C)(CC(C)C)C(=O)N1` [Compound 104, [iso-Lys](1c)^†(6c)GWQE(6c)[Y(2-aminoethoxy)][2-Nal][2-Me-Leu]E(1c)[Dab][3-(3-Pyridyl)-Ala]-[NHMe]] gave an IC50 [1] of 0.5 nM, an Emax [1] of 101% and a remaining at 1 h, 10 µM [2] of 106%. It also gave a remaining at 4 h, 10 µM [2, 4] of 89%, a remaining at 1 h, 10 µM ([3]; pH 1.2, 10 µM) of 100% and a remaining at 4 h, 10 µM [3, 5] of 106%.
In the case of `CC[C@H](C)[C@@H]1NC(=O)[C@@H]2CCCCNC(=O)CC[C@@H](C(=O)N[C@@H](CCN)C(=O)N[C@@H](Cc3cccnc3)C(=O)NC)NC(=O)CNC(=O)[C@H](Cc3ccc4ccccc4c3)NC(=O)[C@H](Cc3ccc(OCCN)cc3)NC(=O)[C@H](CCC(=O)N2)NC(=O)[C@H](CCC(N)=O)NC(=O)[C@H](Cc2c[nH]c3ccccc23)NC(=O)[C@H](C(C)C)NC1=O` [Compound 68, K(1c)(6c)^†IVWQE(6c)[Y(2-aminoethoxy)][2-Nal]GE(1c)[Dab][3-(3-Pyridyl)-Ala]-[NHMe]], the IC50 [1] is reported as 0.072 nM, the Emax [1] is reported as 99% and the “SIF (% remaining 4 h)” value ([2]; 10 µM, pH 6.8, 4 h) is reported as 0%. The remaining at 1 h, 10 µM [2] was 33%, the remaining at 4 h, 10 µM [2, 6] was 0% and the “SGF (% remaining 4 h)” value ([3]; 10 µM) was 95%. It also gave a remaining at 1 h, 10 µM ([3]; pH 1.2, 10 µM) of 91% and a remaining at 4 h, 10 µM ([3]; pH 1.2, SAR tables, % peptide remaining, 10 µM, read-out: SGF (% after 4 h)) of 95%.
Compound `CNC(=O)[C@H](Cc1cccnc1)NC(=O)[C@H](CCN)NC(=O)[C@@H]1CCC(=O)NCCCC[C@@H]2NC(=O)CC[C@H](NC(=O)[C@H](CCC(N)=O)NC(=O)[C@H](Cc3c[nH]c4ccccc34)NC(=O)CCNC2=O)C(=O)N[C@@H](Cc2ccncc2)C(=O)N[C@@H](Cc2ccc3ccccc3c2)C(=O)N[C@@](C)(CC(C)C)C(=O)N1` [Compound 85, K(1c)(6c)^†[3-Aminopropanoyl]WQE(6c)[3-(4-Pyridyl)-Ala][2-Nal][2-Me-Leu]E(1c)[Dab][3-(3-Pyridyl)-Ala]-[NHMe]] has an IC50 [1] of 0.17 nM, an Emax [1] of 97% and a remaining at 1 h, 10 µM [2] of 103%. It also gave a remaining at 4 h, 10 µM [2, 4] of 85%, a remaining at 1 h, 10 µM ([3]; pH 1.2, 10 µM) of 109% and a remaining at 4 h, 10 µM [3, 5] of 110%.
For `CC[C@H](C)[C@@H]1NC(=O)[C@@H]2CCCCNC(=O)CC[C@@H](C(=O)N[C@@H](CCN)C(=O)NCCc3cccnc3)NC(=O)[C@](C)(CC(C)C)NC(=O)[C@H](Cc3ccc4ccccc4c3)NC(=O)[C@H](Cc3ccc(OCCN)cc3)NC(=O)[C@H](CCC(=O)N2)NC(=O)[C@H](CCC(N)=O)NC(=O)[C@H](Cc2c[nH]c3ccccc23)NC(=O)[C@H](C(C)C)NC1=O` [Compound 66, K(1c)(6c)^†IVWQE(6c)[Y(2-aminoethoxy)][2-Nal][2-Me-Leu]E(1c)[Dab]-[NH-2-(pyridin-3-yl)ethyl]], the IC50 [1] was 0.12 nM, the Emax [1] was 101% and the remaining at 1 h, 10 µM [2] was 108%. For the same compound, the remaining at 4 h, 10 µM [2, 4] was 112%, the remaining at 1 h, 10 µM ([3]; pH 1.2, 10 µM) was 98% and the remaining at 4 h, 10 µM [3, 5] was 97%.
In the case of `CNC(=O)[C@H](Cc1cccnc1)NC(=O)[C@H](CCN)NC(=O)[C@@H]1CCC(=O)NCCCC[C@@H]2NC(=O)CC[C@H](NC(=O)[C@H](CCC(N)=O)NC(=O)[C@H](Cc3c[nH]c4ccccc34)NC(=O)CCN(C)C2=O)C(=O)N[C@@H](Cc2ccc(OCCN)cc2)C(=O)N[C@@H](Cc2ccc3ccccc3c2)C(=O)N[C@@](C)(CC(C)C)C(=O)N1` [Compound 81, K(1c)(6c)^†[N-Me-3-Aminopropanoyl]WQE(6c)[Y(2-aminoethoxy)][2-Nal][2-Me-Leu]E(1c)[Dab][3-(3-Pyridyl)-Ala]-[NHMe]], the “% displacement (hIL-23R NIuc)” value [1] is reported as 103%, the IC50 [1] is reported as 0.056 nM and the remaining at 1 h, 10 µM [2] is reported as 101%. For the same compound, the remaining at 4 h, 10 µM [2, 4] was 78%, the “SGF (% remaining 4 h)” value ([3]; 10 µM) was 99% and the remaining at 1 h, 10 µM ([3]; pH 1.2, 10 µM) was 100%.
